Legend:
α-synuclein aggregates [1] = assay: α-Synuclein aggregation phenotype in cells; assay type: cell-based; conditions: correlated with functional rescue
SIRT1 = molecular target: T1, SIRT1 (Homo sapiens, UniProt Q96EB6); assay: Fluorescent SIRT enzyme assay (recombinant enzyme, fluorescent peptide substrate); assay type: biochemical; conditions: at compound concentrations of 40 μM or higher
T1 sequence (Q96EB6 1-747): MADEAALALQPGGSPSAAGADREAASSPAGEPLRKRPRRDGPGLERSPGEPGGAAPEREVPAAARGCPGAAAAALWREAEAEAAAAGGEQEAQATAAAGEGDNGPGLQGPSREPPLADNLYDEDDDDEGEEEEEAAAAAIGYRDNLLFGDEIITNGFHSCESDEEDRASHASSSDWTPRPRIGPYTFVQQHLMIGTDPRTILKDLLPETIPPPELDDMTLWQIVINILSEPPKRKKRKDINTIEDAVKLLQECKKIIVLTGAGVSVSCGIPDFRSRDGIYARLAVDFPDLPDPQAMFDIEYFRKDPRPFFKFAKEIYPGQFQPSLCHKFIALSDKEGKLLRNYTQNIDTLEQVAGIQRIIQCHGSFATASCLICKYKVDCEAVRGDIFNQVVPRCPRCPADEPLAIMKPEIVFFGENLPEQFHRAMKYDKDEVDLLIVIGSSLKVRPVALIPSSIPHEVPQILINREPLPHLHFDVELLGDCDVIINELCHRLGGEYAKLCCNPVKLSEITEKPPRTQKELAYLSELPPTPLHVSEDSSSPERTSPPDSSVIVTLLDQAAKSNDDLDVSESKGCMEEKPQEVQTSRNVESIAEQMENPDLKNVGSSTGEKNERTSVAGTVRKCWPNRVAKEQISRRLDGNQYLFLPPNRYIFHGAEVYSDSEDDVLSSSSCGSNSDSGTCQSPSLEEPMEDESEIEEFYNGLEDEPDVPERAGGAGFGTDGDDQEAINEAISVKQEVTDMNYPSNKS

HeLa cells = assay: Cell-based SIRT2 inhibition (α-tubulin acetylation, Western blot); design: species or system human
Experimental: Tubulin and sirtuin Western blot analysis: Samples were separated on 10% polyacrylamide gels and transferred to a 0.45 μm PVDF membrane (Millipore, Bedford Mass.). Membranes were blocked with a 5% milk solution in PBST. Blots were then probed with antibodies to either SIRT2 (Santa Cruz A-5 at 1:100), tubulin (Sigma, St. Louis Mo., B-5-1-2) or acetylated tubulin (Sigma, 6-11B-1), both at 1:5000. Secondary detection was performed using an HRP-conjugated anti-mouse antibody (Sigma) at 1:4000, and exposed using an ECL detection kit (PerkinElmer). […] The following morning, medium was removed and fresh medium containing compound was added to the wells. After 3 hours, medium was removed and cells were washed 3× with PBS. After the final wash, 100 μL of a hypotonic lysis buffer was added to each well, and the cells were lysed at 37° C. for 5 minutes. The lysates were transferred to eppendorf tubes and centrifuged at 16,000×g for 10 minutes at room temperature. The resulting supernatant contained soluble tubulin monomers, while the pellet contained the insoluble microtubule polymers. […] SDS sample buffer was added to all the samples, followed by Western blot analysis.

[2] = test system: H4 neuroglioma cells transfected with α-synuclein; assay: α-Synuclein toxicity assay (adenylate kinase release, ToxiLight); assay type: cell-based, human; conditions: H4 cells overexpressing α-synuclein
Experimental: Cell culture and transfection: HeLa cells were cultured in DMEM supplemented with 10% fetal bovine serum (FBS) and 2 mM L-glutamine. Human H4 neuroglioma cells (“H4 cells” HTB-148 from the American Type Culture Collection (ATCC), Manassas, Va., USA) were maintained in OPTI-MEM (Life Technologies, Grand Island, N.Y., USA) supplemented with 10% FBS. H4 cells were passaged 24 hours prior to transfection and plated in 24-well plates. The cells were transfected, using a pcDNA3.1hygro vector (Invitrogen) and […] (Qiagen, Chatsworth, Calif., USA) according to the manufacturer's instructions. Compounds or DMSO were added after the transfection procedure was concluded.
α-Synuclein toxicity assay: Toxicity was analyzed 24 hours after transfection by measuring the release of adenyate kinase from damaged cells into the culture medium using the ToxiLight™ kit (Cambrex, Walkersville, Md.) according to the manufaturer's protocol.

α-synuclein aggregates [3] = conditions: previously identified (WO 05/087217); cited from earlier work
[4] = test system: H4 neuroglioma cells transfected with α-synuclein; conditions: previously identified (WO 05/087217); cited from earlier work
SIRT2 = molecular target: T2, SIRT2 (Homo sapiens, UniProt Q8IXJ6); assay: Fluorescent SIRT enzyme assay (recombinant enzyme, fluorescent peptide substrate); assay type: biochemical
T2 construct: purchased Biomol (Plymouth Meeting, Pa.)
T2 sequence (Q8IXJ6 1-389): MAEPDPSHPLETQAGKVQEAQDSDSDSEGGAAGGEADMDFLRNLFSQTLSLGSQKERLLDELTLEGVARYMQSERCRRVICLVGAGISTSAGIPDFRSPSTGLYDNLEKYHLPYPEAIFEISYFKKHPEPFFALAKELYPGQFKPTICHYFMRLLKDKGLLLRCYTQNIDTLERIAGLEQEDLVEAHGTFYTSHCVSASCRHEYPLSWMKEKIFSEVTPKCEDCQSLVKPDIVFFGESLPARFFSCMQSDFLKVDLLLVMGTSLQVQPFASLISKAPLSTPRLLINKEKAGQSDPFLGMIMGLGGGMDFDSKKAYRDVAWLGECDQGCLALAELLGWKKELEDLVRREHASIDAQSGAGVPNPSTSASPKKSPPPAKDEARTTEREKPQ

Row | Structure (SMILES) | α-synuclein aggregates / inclusion size (α-synuclein aggregates [1]) | inhibition of SIRT1 (SIRT1) | acetylation of α-tubulin in compound-treated cells (HeLa cells) | rescue of α-synuclein toxicity [2] | α-synuclein aggregates / inclusions (α-synuclein aggregates [3]) | inhibition of α-synuclein-mediated cellular toxicity [4] | IC50 (SIRT2; recombinant SIRT2, fluorescent peptide substrate, read-out: IC50 against SIRT2) [µM] | selectivity for SIRT2 (SIRT2; versus other sirtuins tested (SIRT1, SIRT3))
1 | N#C/C(=C\c1ccc(-c2cc(Cl)ccc2Cl)o1)C(=O)Nc1cccc2ncccc12 [AGK2] | formation of large inclusions, while reducing number of small aggregates | slightly inhibits | increasing the acetylation of α-tubulin | can rescue α-synuclein toxicity | – | – | – | –
2 | O=[N+]([O-])c1ccc(Sc2nnc(COc3ccccc3)n2-c2ccccc2)c2cccnc12 [B2] | – | – | – | – | decrease in the number of small α-synuclein aggregates and the formation of large inclusions | inhibits α-synuclein-mediated cellular toxicity | 35 | selective inhibition of SIRT2
3 | O=C(Nc1cccc([N+](=O)[O-])c1)c1cccc(S(=O)(=O)N2CCCCCC2)c1 [AK-1, 3-(azepane-1-sulfonyl)-N-(3-nitro-phenyl)-benzamide] | increased inclusion size | – | – | prevented some α-synuclein toxicity | – | – | – | –

Reference: patent US8153803B2, “Compositions and methods for modulating sirtuin activity” (The General Hospital Corporation, priority 2006, dated 2012)
